Holding throughout (test): DTP human tumour cell line panel, 48 h
In assay [1] the test system is DLD-1 colon.
Assay [2] deals with DMS 114 small cell lung.
The test system of assay [3] is DU-145 prostate.
The subject of assay [4] is KM20L2 colon.
The subject of assay [5] is M19-MEL melanoma.
Assay [6] relates to MCF7 breast.
Assay [7] relates to NCI/ADR-RES ovarian.
The subject of assay [8] is PC-3 prostate.
The test system of assay [9] is SNB-78 CNS.

Several values for one entry are separate records, joined by “and”; a condition that tells them apart may be missing. Equal values may be shown once.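 In this assay, cells in 96-well plates receive the compound at five concentrations for 48 hours. Endpoints are linearly interpolated between the surrounding concentrations. GI50 marks 50% less growth. TGI: concentration producing complete growth inhibition.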

On to `CCCCCCCC(=O)O[C@H]1[C@H]2[C@@H](CC1(C)C)C(=O)[C@]13O[C@H]1C(=O)[C@]1(CO1)[C@]23C`, for which the concentration for total growth inhibition (TGI) in [1] was 3.6 µM and 7.46 µM; in assay [2], 3.41 µM and 9.4 µM; in assay [3], 27.9 µM; in [4] it was 11.9 µM and 13.8 µM; in assay [5] it was 4.91 µM and 8.92 µM; in assay [6] it was 19.4 µM and 10.5 µM. Further, the TGI in assay [7] is 5.26 µM and 9.64 µM; in [8], 30.8 µM; in assay [9] it was 26.6 µM and 13.5 µM. Also, the GI50 in [2] was 1.61 µM; in assay [4], 2.73 µM; in [5], 2.09 µM; in [6], 4.99 µM; in assay [7] it was 2.39 µM and 1.72 µM; in assay [9], 12.1 µM.

`NC(=O)COc1ccc(Br)cc1Br`: the TGI in [1], in [2], in assay [4], in assay [5] and in assay [9] was over 100 µM in each case.

Take `CC(C)C(NCc1c2ccccc2nc2ccccc12)C(=O)O` (stereo unspecified): the TGI was over 100 µM in [1], 90.1 µM in [2], over 100 µM in assay [4] and over 100 µM in [5].

In the case of `O=C1/C(=C/c2ccc(Cl)cc2)COc2ccc(Br)cc21`, the TGI in [1], in assay [2], in assay [4], in [5] and in assay [9] was over 100 µM in each case.

Take `O=C1/C(=C/c2ccccc2)CN(C(=O)Oc2ccccc2)C/C1=C\c1ccccc1`: the concentration for total growth inhibition (TGI) in [2] is over 100 µM; in assay [4], over 100 µM; in assay [5], over 100 µM; in assay [9] it was 53.1 µM.

Consider `O=[P+](O)c1cc2c3ccccc3ccc2c2ccccc12`, for which the TGI in [1], in assay [2], in assay [4], in [5] and in assay [9] was over 100 µM in each case.

As to `O=c1cc(-c2ccccc2)[nH]c2c(F)ccc(F)c12`, the TGI in assay [1], in assay [2] and in assay [5] was over 100 µM in each case.

Consider `CC(=O)[O-].CC(=O)[O-].CC(=O)[O-].CC(=O)[O-].CO.CO.CO.[Rh+2].[Rh+2].c1ccc(-c2ccccn2)nc1`, for which the GI50 in assay [1] was over 100 µM; in assay [2], 62.2 µM; in [4], over 100 µM; in [5], over 100 µM; in assay [9] it was over 100 µM. Also, the TGI in assay [1], in assay [2], in assay [4], in assay [5] and in assay [9] was over 100 µM each time.

Take `CC(C)N(C(=O)C12C3C4C5C3C1(C(=O)N(C(C)C)C(C)C)C5C42)C(C)C` (stereo unspecified): the TGI in assay [1] was over 64.3 µM; in [2], over 63.2 µM; in [4], over 100 µM; in [5], over 100 µM; in assay [9], over 100 µM.

As for `CC(C)=CCCC1(C)C=Cc2c(ccc3c2[nH]c2cc(O)c(C)cc23)O1` (stereo unspecified), the results for the GI50 in assay [1], in assay [4] and in [5] were 8.89 µM, 5.22 µM and 6.99 µM, respectively. In addition, the TGI in assay [1] is 22.9 µM; in [2], 19.8 µM; in assay [4] it was 10.4 µM; in assay [5] it was 16.8 µM; in assay [9] it was over 25 µM.

Consider `CC(=O)OC1CC2C(C)(C)C(=O)C=C[C@]2(C)C2CCC3(C)C(=CCC3[C@H](CO)C[C@H](O)C(=O)C(C)(C)O)[C@]12C` (stereo partly specified), for which the TGI in assay [1] is 30.3 µM; in assay [2], over 100 µM; in assay [4] it was 28 µM; in assay [5] it was 97.3 µM; in [9], over 100 µM.

In the case of `O=C(/C=C/c1ccc(OCCCOc2ccc(/C=C/C(=O)c3ccc(Cl)cc3)cc2)cc1)c1ccc(Cl)cc1`, the TGI in assay [1], in assay [2], in assay [4], in assay [5] and in [9] was over 100 µM in each case.

Regarding `O=C1NC(=Nc2ccccc2Cl)SC1C(=O)Nc1ccc([N+](=O)[O-])cc1[N+](=O)[O-]` (stereo unspecified), the TGI in [1], in assay [2], in [4], in assay [5] and in [9] was over 100 µM in each case.

For `Cc1ccc(S(=O)(=O)N/N=C/CN2C(=O)c3ccccc3C2=O)cc1`, the TGI in assay [1], in assay [2], in assay [4] and in assay [5] was over 100 µM each time.

`CC(C)S(=O)(=O)ON1C(=O)c2ccc([N+](=O)[O-])cc2C1=O`: the TGI in assay [1], in assay [2], in assay [5] and in assay [9] was over 100 µM each time.

For the compound `CN(C)/C=C/C(=O)c1cccc(C(=O)/C=C/N(C)C)n1`, the TGI in assay [1], in assay [4], in assay [5] and in assay [9] was over 100 µM in each case.

Consider `COc1cccc(C2N3CCCCC3[C@@H]3c4[nH]c5ccccc5c4CCN23)c1OC` (stereo partly specified), for which the TGI in [1] was 31.2 µM; in [2], 29.2 µM; in [4], 27.4 µM; in [5], 29.4 µM; in assay [9], 29.8 µM.

Turning to `CC1CC(=O)CC[C@@H]1OCc1ccccc1` (stereo partly specified), the TGI in [1], in assay [2], in [4], in assay [5] and in [9] was over 100 µM in each case.

On to `CCC1C(=O)OCc2c1cc1n(c2=O)Cc2ccccc2-1` (stereo unspecified), for which the TGI in assay [1], in assay [2], in [4], in assay [5] and in assay [9] was over 100 µM throughout.

Values taken from PubChem BioAssay (NCI).
